The values below come from ChEMBL document CHEMBL1130219, “Structure-activity relationships of 2'-deoxy-2',2'-difluoro-L-erythro-pentofuranosyl nucleosides” (J Med Chem, 1997).

For one experiment, the system named is Vero. Briefly: Compound was evaluated for its toxicity by […] assay in vero cells. The following applies: Chlorocebus sabaeus. In kind it is functional, cell-based.
A short description of experiment [1]: Antiviral activity against human immunodeficiency virus type-1 (HIV-1) in PBM cells. In kind it is functional, cell-based. The following applies: PBMC.
The next experiment relates to Human alphaherpesvirus 1. Briefly: Antiviral activity against Herpes simplex virus type-1. It is filed as functional, organism-based.
For a further experiment, the system named is Human alphaherpesvirus 2. In words: Antiviral activity against Herpes simplex virus type-2. It is filed as functional, organism-based.
For a further experiment, the system named is Hepatitis B virus. In words: Antiviral activity against Hepatitis-B virus 2.2.15(HBV). In kind it is functional, organism-based. As to conditions: HepG2 2.2.15.
The next experiment has as its system CCRF-CEM. In words: Compound was evaluated for its toxicity by […] assay in CEM. As to conditions: Homo sapiens. In kind it is functional, cell-based.
The nature of experiment [2]: Compound was evaluated for its toxicity by […] assay in PBM. It is filed as functional, Homo sapiens.

Turning to `Nc1nc(=O)n([C@@H]2O[C@@H](CO)[C@H](O)C2(F)F)cc1I`, the IC50 (with Vero; in the experiment with CCRF-CEM; in experiment [2]) was > 100 µM throughout. The EC50 was > 100 µM in experiment [1], > 100 µM in the experiment on Human alphaherpesvirus 1, > 100 µM in the experiment with Human alphaherpesvirus 2 and > 10 µM with Hepatitis B virus.
Take `O=c1[nH]c(=O)n([C@@H]2O[C@@H](CO)[C@H](O)C2(F)F)cc1F`: the IC50 in the experiment on Vero was 100 µM; in the experiment on CCRF-CEM, > 100 µM; in experiment [2], > 100 µM. The EC50 in experiment [1] was > 100 µM; in the experiment on Human alphaherpesvirus 1 it was > 100 µM; in the experiment on Human alphaherpesvirus 2 it was > 100 µM; in the experiment with Hepatitis B virus it was > 10 µM.
As to `Nc1ncnc2c1ncn2[C@@H]1O[C@@H](CO)[C@H](O)C1(F)F`, the IC50 (in the experiment on Vero; in the experiment with CCRF-CEM; in experiment [2]) was > 100 µM each time. Besides, the EC50 was > 100 µM in experiment [1], > 100 µM in the experiment with Human alphaherpesvirus 1, > 100 µM in the experiment with Human alphaherpesvirus 2 and > 20 µM with Hepatitis B virus.
Regarding `Nc1ncnc2c1ncn2[C@H]1O[C@@H](CO)[C@H](O)C1(F)F`, the IC50 (in the experiment with Vero; in the experiment on CCRF-CEM; in experiment [2]) was > 100 µM in each case. The 50% effective concentration (EC50) in experiment [1] is 3.4 µM; in the experiment with Human alphaherpesvirus 1, > 100 µM; with Human alphaherpesvirus 2 it was > 100 µM; with Hepatitis B virus, > 20 µM.
Consider `Nc1nc(=O)n([C@H]2O[C@@H](CO)[C@H](O)C2(F)F)cc1I`, for which the IC50 (in the experiment on Vero; in the experiment with CCRF-CEM; in experiment [2]) was > 100 µM throughout. For the same molecule, the concentration for a half-maximal effect (EC50) was > 100 µM in experiment [1], > 100 µM in the experiment with Human alphaherpesvirus 1, > 100 µM in the experiment with Human alphaherpesvirus 2 and > 10 µM in the experiment on Hepatitis B virus.
Consider `O=c1[nH]c(=O)n([C@H]2O[C@@H](CO)[C@H](O)C2(F)F)cc1F`, for which the half-maximal inhibitory concentration (IC50) (with Vero; in the experiment with CCRF-CEM; in experiment [2]) was > 100 µM throughout. Moreover, the EC50 was > 100 µM in experiment [1], > 100 µM in the experiment on Human alphaherpesvirus 1, > 100 µM with Human alphaherpesvirus 2 and > 10 µM with Hepatitis B virus.
`Cc1cn([C@H]2C[C@H](N=[N+]=[N-])[C@@H](CO)O2)c(=O)[nH]c1=O` [ZIDOVUDINE]: the concentration for half-maximal inhibition (IC50) with Vero was 29 µM; with CCRF-CEM it was 13 µM; in experiment [2], > 100 µM. Further, the EC50 in experiment [1] is 0.004 µM; in the experiment with Human alphaherpesvirus 1, > 100 µM; in the experiment with Human alphaherpesvirus 2, > 100 µM; in the experiment with Hepatitis B virus, > 10 µM.
